Measured values taken from publication PMC7921093, “Human METTL7B is an alkyl thiol methyltransferase that metabolizes hydrogen sulfide and captopril” (Scientific Reports, 2021).
One block for each compound: values may come before it.

Key:
Type in all cases: biochemical
[1] = biological target: T1, METTL7B (methyltransferase-like protein 7B) (Homo sapiens, UniProt Q6UX53); assay: Michaelis-Menten kinetics of S-methyl captopril formation, LC-MS/MS
T1 construct: gene TMT1B; His-GST-METTL7B, N-terminal His-GST tag with (AP)5 linker
T1 sequence (Q6UX53 1-244): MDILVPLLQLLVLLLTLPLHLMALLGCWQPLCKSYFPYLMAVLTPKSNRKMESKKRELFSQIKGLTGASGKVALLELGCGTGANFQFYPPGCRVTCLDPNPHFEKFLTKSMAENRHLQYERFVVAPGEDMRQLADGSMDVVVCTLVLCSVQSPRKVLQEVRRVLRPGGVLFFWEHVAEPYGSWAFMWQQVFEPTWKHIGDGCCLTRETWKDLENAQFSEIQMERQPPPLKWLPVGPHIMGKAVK

[2] = biological target: T1, METTL7B (methyltransferase-like protein 7B); assay: methylsulfide formation, LC-MS/MS after monobromobimane derivatization, saturable kinetics
[3] = biological target: T1, METTL7B (methyltransferase-like protein 7B); assay: MTaseGlo substrate screen (AdoHcy formation) with purified enzyme
From the text: MTaseGlo substrate screen (AdoHcy formation) with purified enzyme on METTL7B (methyltransferase-like protein 7B) | D-Penicillamine|++

[4] = biological target: T1, METTL7B (methyltransferase-like protein 7B); assay: S-methyl captopril formation by purified enzyme, LC-MS/MS; D98A inactive

Compound: C[S+](CC[C@H](N)C(=O)[O-])C[C@H]1O[C@@H](n2cnc3c(N)ncnc32)[C@H](O)[C@@H]1O (stereo partly drawn) [S-adenosyl-L-methionine]
- Michaelis-Menten kinetics of S-methyl captopril formation, LC-MS/MS [1]: the AdoMet activity curve was saturable and exhibited classic Michaelis–Menten kinetics

Compound: S [hydrogen sulfide]
- methylsulfide formation, LC-MS/MS after monobromobimane derivatization, saturabl [2]: Peak area ratio (PAR) versus concentration curve for hydrogen sulfide methylation as measured by formation of methylsulfide

- MTaseGlo substrate screen (AdoHcy formation) with purified enzyme [3]: D-Penicillamine|++
Compound: CC(C)(S)[C@@H](N)C(=O)O [D-penicillamine]

Compound: C[C@H](CS)C(=O)N1CCC[C@H]1C(=O)O [captopril]
- S-methyl captopril formation by purified enzyme, LC-MS/MS; D98A inactive [4]: concentration-dependent formation of S-methyl captopril was observed upon incubation with purified wild-type His-GST-METTL7B
